In patent publication US10202427B2, “Esculentin-2CHa peptide and analogues thereof” (UNIVERSITY OF ULSTER, priority 2014, dated 2019):

Assays:
BRIN-BD11 cells [1] = experiment: Insulin release from BRIN-BD11 cells (radioimmunoassay); format: cell-based
Method: BRIN-BD11 cells (Public Health England; Cat. No: 10033003) were grown at 37° C. in an atmosphere of 5% CO2 and 95% air in RPMI-1640 tissue culture medium containing 10% (v/v) fetal calf serum, antibiotics (100 U/ml penicillin, 0.1 mg/ml streptomycin) and 11.1 mM glucose as previously described (Marenah et al, 2004; Conlon et al, 2008; and Mechkarska et al, 2011). The cells were pre-incubated for 40 min at 37° C. in 1.0 ml Krebs Ringer bicarbonate (KRB) buffer, pH 7.4 supplemented with either 5.6 mM or 16.7 mM glucose and 0.1% (w/v) bovine serum albumin (Conlon et al, 2008). Incubations with synthetic peptides (10^−12-3×10^−6 M; n =8) were performed for 20 min at 37° C. using the same buffer. After incubation, aliquots of cell supernatant were removed for insulin radioimmunoassay as described by Flatt and Bailey (1981).

BRIN-BD11 cells [2] = experiment: Intracellular calcium in BRIN-BD11 cells (fluorimetric); format: cell-based; details: peptide 1 μM, 10 min, vs 5.6 mM glucose alone
Method: (§1) Changes in membrane potential and [Ca^2+]i were determined fluorimetrically using monolayers of BRIN-BD11 cells as previously described by Miguel et al (2004) and Abdel-Wahab et al (2007) using a membrane potential assay kit or a Ca^2+ assay kit (Molecular Devices, Sunnyvale, Calif., USA) according to the manufacturer's recommended protocols. Data were acquired using a FlexStation scanning fluorimeter with integrated fluid transfer workstation (Molecular Devices). The cells were incubated at 37° C. for 10 min with synthetic peptides at a concentration of 1 μM. Control incubations in the presence of 5.6 mM glucose only, 30 mM KCl, and 10 mM alanine were also carried out.

BRIN-BD11 cells [3] = experiment: Insulin release from BRIN-BD11 cells with known modulators of insulin secretion / extracellular calcium; format: cell-based; details: 16.7 mM glucose; peptide 10^-6 M
Method: Cellular mechanism of actions of synthetic peptides was investigated by measuring insulin-release from BRIN-DB11 cells in the presence or absence of synthetic peptides (10^−6M) and known modulators of insulin-release. These additional incubations were carried in (a) medium supplemented with 16.7 mM glucose, (b) calcium-free medium supplemented with 5.6 mM glucose, (c) medium containing 5.6 mM glucose and diazoxide ([…]), (d) medium containing 5.6 mM glucose and verapamil ([…]), and (e) medium supplemented with 16.7 mM glucose and 30 mM KCl. Cells were incubated for 20 min at 37° C. and insulin concentrations in cell supernatants were measured by radioimmunoassay (Flatt and Bailey (1981)).
Without being bound by theory, by incubating BRIN-BD11 cells with the known modulators of insulin release in the absence or presence of the peptides and peptide analogues of the present invention (10^-6M), it was shown that the stimulatory effect of the peptides was inhibited in the presence of verapamil (50 μM) and chelation of extracellular calcium but completely abolished in the presence of diazoxide (200 μM). Moreover, insulin secretion increased with the co-incubation of the peptide with IBMX (200 μM), and tolbutamide (200 μM).

BRIN-BD11 cells [4] = experiment: Membrane potential in BRIN-BD11 cells (fluorimetric); format: cell-based; details: peptide 1 μM, 10 min, vs 5.6 mM glucose alone
Method: as §1

NIH Swiss TO mice = experiment: Acute in vivo glucose tolerance study, i.p. glucose with peptide; details: peptide 75 nmol/kg bw i.p. with glucose; for plasma insulin concentration after intraperitoneal glucose load: mice
Method: (§2) All animal experiments were carried out in accordance with the UK Animals (Scientific Procedures) Act 1986 and EC Directive 86/609/EEC for animal experiments. For acute in vivo glucose tolerance studies, age-matched groups (n =6) of overnight fasted male NIH Swiss TO mice received an intraperitoneal injection of either glucose alone (32% w/v) or in combination with synthetic peptides (75 nmol/kg body weight). All solutions were administered in 0.9% NaCl (5 ml/kg body weight). Blood glucose concentrations were measured by Bayer Ascencia Blood glucose meter and plasma insulin concentrations were measured by radioimmunoassay as described by Flatt and Bailey (1981). For chronic in vivo studies, male NIH Swiss TO mice were fed high fat diet or standard diet from 8 weeks of age to 27 weeks of age. Peptides were administered twice daily for 28 days. No adverse effects were observed following administration of the peptide. Parameters including body weight, energy intake, blood glucose and plasma insulin levels were monitored once in three days for 28 days. Body weight and energy intake were measured by weighing mice and food weights respectively. At the end of the study, to determine glucose tolerance, glucose (18 mmol/kg bw) was injected (i.p) to overnight fasted mice and blood glucose levels were monitored at 0, 15, 30, 60 and 90 minutes. To determine insulin sensitivity, insulin (25 U/kg bw) was injected and blood glucose levels were monitored at 0, 15, 30 and 60 minutes. To determine blood glucose profile over a period of 24 h, blood glucose levels were monitored at 0 (before peptide administration), 2, 4, 8 (before peptide administration) and 24 h (before peptide administration). Lean and fat mass were determined by DXA scanning and terminal blood and tissues were collected for ex vivo studies including pancreatic islet morphology, hormone content, lipid profile and islet function.

[5] = test system: Swiss TO mice on high fat diet; experiment: Chronic in vivo study, twice-daily peptide for 28 days in high fat fed mice; details: for glucose tolerance: end of 28 day study, glucose 18 mmol/kg bw i.p., overnight fasted; for effect on body weight change relative to Exendin-4 / body weight change (Day 0-Day 28): twice daily; for effect on body weight change relative to Exendin-4 / body weight change (Day 0-Day 28) / plasma insulin levels during treatment: 28 days; for body weight change (Day 0-Day 28): vs lean and high fat diet saline control; for blood glucose levels during treatment: monitored once in three days for 28 days
Method: as §2, with “No adverse effects were observed following administration of the peptide.” left out
In vivo anti-diabetic effects of Exendin-4, Esculentin-2CHa-(GA30), [D-Arg7, D-Lys15,D-Lys23]-esculentin-2CHa-(GA30), and Lys15-octanoate-Esculentin-2CHa-(GA30) were assessed using Swiss TO mice fed high fat diet, with appropriate controls (saline treated mice on standard diet or high fat diet).

[6] = vs high fat diet saline control

## Esculentin-2CHa
BRIN-BD11 cells [1]; 5.6 mM glucose, peptides 10^-12-3x10^-6 M, 20 min
  insulin release from BRIN-BD11 cells: dose-dependent stimulatory effects
BRIN-BD11 cells [2]
  intracellular calcium: caused an increase in intracellular calcium
BRIN-BD11 cells [3]
  insulin-release stimulatory effects in the presence of high glucose: retained
BRIN-BD11 cells [4]
  membrane depolarization: significantly enhanced membrane depolarization
NIH Swiss TO mice; mice with diet-induced obesity diabetes (so in the source)
  plasma glucose after intraperitoneal glucose load: significantly reduced plasma glucose concentration
NIH Swiss TO mice
  plasma insulin concentration after intraperitoneal glucose load: increase plasma insulin concentrations
NIH Swiss TO mice; listed as esculentin-2CHa
  plasma insulin concentration after intraperitoneal glucose load: significantly increased

## Esculentin-2CHa-(GA30)
BRIN-BD11 cells [1]; at lower concentrations
  insulin-releasing potency compared to native peptide: more potent than the native peptide at lower concentrations
[5]
  glucose tolerance: improved glucose tolerance, with lowered plasma glucose and insulin levels
  effect on body weight change relative to Exendin-4: comparable to Exendin-4
  body weight change (Day 0-Day 28): significant reduction in body weight
[5]; [6]
  islet area, beta and alpha cell area: significantly reduced islet area, beta and alpha cell area
  plasma insulin area under curve: markedly lower than high fat diet saline control
  plasma insulin levels during treatment: reduced plasma insulin levels significantly from day 12
NIH Swiss TO mice
  plasma insulin concentration after intraperitoneal glucose load: significantly increased
  acute in vivo effects compared to native peptide: comparable to the effects of native esculentin-CHa

## Exendin-4 [reference compound]
[5]
  glucose tolerance: improved glucose tolerance, with lowered plasma glucose and insulin levels
  body weight change (Day 0-Day 28): significant reduction in body weight
[5]; [6]
  islet area, beta and alpha cell area: significantly reduced islet area, beta and alpha cell area

## Lys15-octanoate-Esculentin-2CHa-(GA30)
[5]
  glucose tolerance: improved glucose tolerance, with lowered plasma glucose and insulin levels
  blood glucose levels during treatment: reduced blood glucose levels markedly from day 6
  effect on body weight change relative to Exendin-4: comparable to Exendin-4
  body weight change (Day 0-Day 28): significant reduction in body weight
[5]; [6]
  LDL levels: reduced LDL levels
  islet area, beta and alpha cell area: significantly reduced islet area, beta and alpha cell area
  plasma insulin area under curve: markedly lower than high fat diet saline control
  plasma insulin levels during treatment: reduced plasma insulin levels significantly from day 12

## [D-Arg7, D-Lys15,D-Lys23]-esculentin-2CHa-(GA30)
[5]
  glucose tolerance: improved glucose tolerance, with lowered plasma glucose and insulin levels
  blood glucose levels during treatment: reduced blood glucose levels from day 21
  effect on body weight change relative to Exendin-4: comparable to Exendin-4
  body weight change (Day 0-Day 28): significant reduction in body weight
[5]; [6]
  islet area, beta and alpha cell area: significantly reduced islet area, beta and alpha cell area
  plasma insulin area under curve: markedly lower than high fat diet saline control

## [Lys20, Lys27, Ser31, Ser37]-Esculentin-2CHa
NIH Swiss TO mice
  plasma insulin concentration after intraperitoneal glucose load: significantly increased
  acute in vivo effects compared to native peptide: comparable to the effects of native esculentin-CHa

## [Lys20, Lys27]-Esculentin-2CHa-(GA30)
NIH Swiss TO mice
  plasma insulin concentration after intraperitoneal glucose load: significantly increased
